Measured values as given in US20140221301A1, “COMBINATION TREATMENT FOR CANCER” (priority 2011, published 2014).

Columns and labels:
TEX cells = experiment: ROS generation (DCF-DA, DHE) in TEX cells; format: cell-based, human; conditions: time-points up to 24 hours
Method: FIG. 4. […] (A) Cells from TEX, OCI-AML2 and two primary AML patients were treated with increasing concentrations (2.5 μM and 5 μM) of tigecycline for 36 and 48 hours of tigecycline. Total proteins were extracted and analyzed by western blotting for Cox-1, Cox-2, Cox-4, grp78, XIAP, actin and tubulin. (B) TEX and AML patient cells were treated with increasing concentrations (2.5 μM and 5 μM) of tigecycline. Cox-1, Cox-2, and Cox-4 mRNA expression relative 18S was determined by quantitative RT-PCR. Data is shown as mean±SD. (C) TEX cells were treated with increasing concentrations of tigecycline and chloramphenicol (CAP) for 72 hours. Complex I, II and IV enzyme activity relative to citrate synthase activity was determined as described in materials and methods. (D) Cells from TEX, primary AML patients, and normal donors were treated with increasing concentrations of tigecycline. Mitochondrial membrane potential (ΔΨ) was determined by staining cells with JC-1 dye, and flow cytometry analysis (Red/Green ratio). Reactive oxygen species generation (ROS) was determined by staining with h2-DCFDA and Dihydroethidium (DHE).
A byproduct of the mitochondrial enzyme activities of the electron transport chain is the generation of reactive oxygen species (ROS). […] Therefore, the role of tigecycline on ROS generation in leukemia cells by analyzing hydrogen peroxide ions (H2O2) using a dichlorofluorescein dye (DCF-DA), and superoxide anions using dihydroethidium (DHE) was examined.

[1] = test system: acute myeloid leukemia (AML); conditions: 13 patients treated; cited from earlier work

With CC[C@H]1/C=C/C=C/C[C@@H](C)[C@H](O)[C@@](C)(O)C(=O)[C@@H](C)[C@H](O)[C@@H](C)C(=O)[C@@H](C)[C@H](O)[C@@H](C)/C=C/C(=O)O[C@@H]2[C@H](C)[C@H](CC1)O[C@]1(CC[C@H](C)[C@H](C[C@@H](C)O)O1)[C@H]2C [oligomycin] as the molecule, how does the ROS generation (TEX cells) read?
Its ROS generation is “rapid increases”.

What does the source list for NC(=O)c1ncn([C@@H]2O[C@H](CO)[C@@H](O)[C@H]2O)n1 [ribavirin]?
complete remission [1]: 1; partial remissions [1]: 2

For C=C(C)[C@H]1Cc2c(ccc3c2O[C@@H]2COc4cc(OC)c(OC)cc4[C@@H]2C3=O)O1 [rotenone], which ROS generation (TEX cells) is on record?
Its ROS generation is “rapid increases”.

Which ROS generation (TEX cells) does the source give for antimycin here?
The ROS generation was “rapid increases”.
